This note sets out measurements from PubChem BioAssay AID212 (DTP/NCI, 2004).

Several values for one entry are separate records, joined by “and”; a condition that tells them apart may be missing. Identical values can stand only once. Results filed as inconclusive are left out.

The assay has as its system BDF1 mice, colon carcinoma 38 sc, T/C %. Briefly: NCI In Vivo Anticancer Drug Screen. Data for tumor model Colon Carcinoma 38 (subcutaneous) in B6D2F1 (BDF1) mice. To be noted: endpoint: median tumor weight (est.), higher = larger tumour. The method, boiled down:
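Compound antitumor activity was assessed in mice carrying transplantable tumors. Survival or tumor size was recorded, and each value is the treated-group measurement divided by that of the vehicle-treated control group.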

The mark [1] stands for this setting: dose: 6.25 mg/kg/injection, schedule: Q07DX003 (ip), vehicle: clinical formulation.
Setting [2] is: dose: 6.25 mg/kg/injection, schedule: Q07DX003 (ip), vehicle: water.
Setting [3] is: dose: 12.5 mg/kg/injection, schedule: Q07DX003 (ip), vehicle: clinical formulation.
The mark [4] stands for this setting: dose: 12.5 mg/kg/injection, schedule: Q07DX003 (ip), vehicle: water.
Where [5] appears, read: dose: 25.0 mg/kg/injection, schedule: Q07DX003 (ip), vehicle: clinical formulation.
Where [6] appears, read: dose: 25.0 mg/kg/injection, schedule: Q07DX003 (ip), vehicle: water.
The mark [7] stands for this setting: dose: 50.0 mg/kg/injection, schedule: Q07DX003 (ip), vehicle: clinical formulation.
[8] abbreviates: dose: 50.0 mg/kg/injection, schedule: Q07DX003 (ip), vehicle: water.
The mark [9] stands for this setting: dose: 12.5 mg/kg/injection, schedule: Q07DX002 (ip), vehicle: saline with Tween-80.
Setting [10] is: dose: 25.0 mg/kg/injection, schedule: Q07DX002 (ip), vehicle: saline with Tween-80.
The mark [11] stands for this setting: dose: 3.12 mg/kg/injection, schedule: Q07DX002 (ip), vehicle: Klucel (hydroxypropylcellulose) (HPC).
Setting [12] is: dose: 6.25 mg/kg/injection, schedule: Q07DX002 (ip), vehicle: Klucel (hydroxypropylcellulose) (HPC).
The mark [13] stands for this setting: dose: 12.5 mg/kg/injection, schedule: Q07DX002 (ip), vehicle: Klucel (hydroxypropylcellulose) (HPC).
Where [14] appears, read: dose: 25.0 mg/kg/injection, schedule: Q07DX002 (ip), vehicle: Klucel (hydroxypropylcellulose) (HPC).
The mark [15] stands for this setting: dose: 12.5 mg/kg/injection, schedule: Q07DX002 (ip), vehicle: suspension in saline.
Setting [16] is: dose: 25.0 mg/kg/injection, schedule: Q07DX002 (ip), vehicle: suspension in saline.
Setting [17] is: dose: 50.0 mg/kg/injection, schedule: Q07DX002 (ip), vehicle: saline.
Setting [18] is: dose: 50.0 mg/kg/injection, schedule: Q07DX002 (ip), vehicle: suspension in saline.
The mark [19] stands for this setting: dose: 100.0 mg/kg/injection, schedule: Q07DX002 (ip), vehicle: saline.
Setting [20] is: dose: 200.0 mg/kg/injection, schedule: Q07DX002 (ip), vehicle: saline.
Where [21] appears, read: dose: 200.0 mg/kg/injection, schedule: Q07DX002 (ip), vehicle: suspension in saline.
Setting [22] is: dose: 400.0 mg/kg/injection, schedule: Q07DX002 (ip), vehicle: saline.
[23] abbreviates: dose: 400.0 mg/kg/injection, schedule: Q07DX002 (ip), vehicle: suspension in saline.
Setting [24] is: dose: 25.0 mg/kg/injection, schedule: Q07DX002 (ip), vehicle: saline.

Take `CCN(CC)CCNc1ccc(CO)c2sc3ccccc3c(=O)c12`: the T/C under setting [1] is 120 % of control; the T/C under setting [2] was 90 % of control; the T/C under setting [3] is 116 % of control; the T/C under setting [4] is 103 % of control; the T/C under setting [5] was 77 % of control; the T/C under setting [6] is 114 % of control. Further, the T/C under setting [7] was 63 % of control; the T/C under setting [8] was 30 % of control; the T/C (dose: 100.0 mg/kg/injection, schedule: Q07DX003 (ip), vehicle: clinical formulation) is 14 % of control; the T/C (dose: 100.0 mg/kg/injection, schedule: Q07DX003 (ip), vehicle: water) is 11 % of control.

`O=C1CN(Cc2ccc3c(c2)OCO3)NO1`: the T/C runs as follows: under setting [9], 76 % of control and 89 % of control; under setting [10], 81 % of control and 84 % of control.

Turning to `C=C(C)C(=O)O[C@H]1CC2=C[C@@H](C[C@@]3(C)O[C@@H]3[C@H]3OC(=O)C(=C)[C@@H]31)OC2=O`, the T/C is, setting by setting: under setting [11], 93 % of control; under setting [12], 112 % of control and 105 % of control; under setting [13], 93 % of control; under setting [14], 90 % of control and 102 % of control; (dose: 50.0 mg/kg/injection, schedule: Q07DX002 (ip), vehicle: Klucel (hydroxypropylcellulose) (HPC)) 113 % of control and 100 % of control.

Turning to `NC(=S)c1ncn(C2OC(CO)C(O)C2O)c1N` (stereo not drawn), the T/C is 114 % of control under setting [15]; 80 % of control under setting [16]; 106 % of control under setting [17]; 87 % of control under setting [18]; 118 % of control under setting [19]; 67 % of control (dose: 100.0 mg/kg/injection, schedule: Q07DX002 (ip), vehicle: suspension in saline). The T/C is 259 % of control under setting [20], 56 % of control under setting [21], 226 % of control under setting [22] and 67 % of control under setting [23].

`N=[N+]=CC(=O)CCC(NC(=O)C(CCC(=O)C=[N+]=N)NC(=O)CCC(N)C(=O)O)C(=O)O` (stereo not drawn): the T/C (dose: 3.12 mg/kg/injection, schedule: Q07DX003 (ip), vehicle: clinical formulation) was 54 % of control; the T/C (dose: 3.12 mg/kg/injection, schedule: Q07DX003 (ip), vehicle: water) was 52 % of control; the T/C under setting [1] was 62 % of control; the T/C under setting [2] is 48 % of control; the T/C under setting [3] was 46 % of control; the T/C under setting [4] was 32 % of control. The T/C is, setting by setting: under setting [5], 40 % of control; under setting [6], 44 % of control; under setting [7], 18 % of control; under setting [8], 12 % of control.

As to `O=C(NO)c1ccccc1`, the T/C is 70 % of control under setting [24]; 168 % of control under setting [16]; 83 % of control under setting [17]; 63 % of control under setting [19]; 80 % of control under setting [20]; 165 % of control under setting [21]. Further, the T/C is 70 % of control under setting [22]; 103 % of control under setting [23]; 89 % of control (dose: 800.0 mg/kg/injection, schedule: Q07DX002 (ip), vehicle: saline); 105 % of control (dose: 800.0 mg/kg/injection, schedule: Q07DX002 (ip), vehicle: suspension in saline).

In the case of `O=NN(CCCl)C(=O)NC1CCCCC1`, the T/C by setting is: under setting [12], 91 % of control; (dose: 10.0 mg/kg/injection, schedule: Q07DX003 (ip), vehicle: Klucel (hydroxypropylcellulose) (HPC)) 71 % of control; (dose: 10.0 mg/kg/injection, schedule: Q07DX003 (ip), vehicle: carboxymethylcellulose (CMC)) 53 % of control; under setting [13], 64 % of control; (dose: 20.0 mg/kg/injection, schedule: Q07DX003 (ip), vehicle: Klucel (hydroxypropylcellulose) (HPC)) 72 % of control; (dose: 20.0 mg/kg/injection, schedule: Q07DX003 (ip), vehicle: carboxymethylcellulose (CMC)) 47 % of control. Also, the T/C reads like this: under setting [14], 36 % of control; (dose: 40.0 mg/kg/injection, schedule: Q07DX003 (ip), vehicle: Klucel (hydroxypropylcellulose) (HPC)) 44 % of control; (dose: 40.0 mg/kg/injection, schedule: Q07DX003 (ip), vehicle: carboxymethylcellulose (CMC)) 24 % of control; (dose: 80.0 mg/kg/injection, schedule: Q07DX003 (ip), vehicle: Klucel (hydroxypropylcellulose) (HPC)) 33 % of control.

Take `C1CCC2C[N-]CCC2C1.C1CCC2C[N-]CCC2C1.C1CCC2C[N-]CCC2C1.C1CCC2C[N-]CCC2C1.[Cl][Rh][Cl]` (stereo not drawn): the T/C was 107 % of control (dose: 1.0 mg/kg/injection, schedule: Q07DX003 (ip), vehicle: saline); 62 % of control (dose: 2.0 mg/kg/injection, schedule: Q07DX003 (ip), vehicle: saline); 82 % of control (dose: 4.0 mg/kg/injection, schedule: Q07DX003 (ip), vehicle: saline); 87 % of control (dose: 8.0 mg/kg/injection, schedule: Q07DX003 (ip), vehicle: saline); 78 % of control (dose: 16.0 mg/kg/injection, schedule: Q07DX003 (ip), vehicle: saline).

In the case of `Nc1nc(N)c2c(ccc3c2ccn3Cc2cccc([N+](=O)[O-])c2)n1`, the T/C reads like this: (dose: 3.12 mg/kg/injection, schedule: Q07DX002 (ip), vehicle: saline with Tween-80) 85 % of control; (dose: 6.25 mg/kg/injection, schedule: Q07DX002 (ip), vehicle: saline with Tween-80) 80 % of control; under setting [9], 72 % of control; under setting [10], 14 % of control.

For `CN(C)c1ccc2c(N(C)C)cc(N(C)C)nc2c1`, the T/C runs as follows: under setting [11], 77 % of control and 101 % of control; under setting [13], 114 % of control and 107 % of control; under setting [14], 72 % of control.

As for `N=c1ccn2c(n1)OC1C(O)C(CO)OC12` (stereo not drawn), the T/C under setting [24] was 84 % of control; the T/C under setting [17] was 105 % of control; the T/C (dose: 50.0 mg/kg/injection, schedule: Q07DX003 (ip), vehicle: suspension in saline) was 94 % of control; the T/C (dose: 100.0 mg/kg/injection, schedule: Q07DX003 (ip), vehicle: suspension in saline) is 73 % of control; the T/C (dose: 200.0 mg/kg/injection, schedule: Q07DX003 (ip), vehicle: suspension in saline) is 66 % of control; the T/C (dose: 400.0 mg/kg/injection, schedule: Q07DX003 (ip), vehicle: suspension in saline) was 51 % of control. Further, the T/C runs as follows: (dose: 800.0 mg/kg/injection, schedule: Q07DX003 (ip), vehicle: suspension in saline) 20 % of control; (dose: 1600.0 mg/kg/injection, schedule: Q07DX002 (ip), vehicle: saline) 31 % of control; (dose: 1600.0 mg/kg/injection, schedule: Q07DX003 (ip), vehicle: suspension in saline) 19 % of control.

For the molecule `O=CC(=O)c1ccc(O)cc1`, the T/C reads like this: (dose: 6.25 mg/kg/injection, schedule: Q07DX002 (ip), vehicle: suspension in saline) 216 % of control; under setting [15], 114 % of control; under setting [16], 153 % of control; under setting [18], 153 % of control; under setting [21], 118 % of control.
